Laboratory results reported in PubChem BioAssay AID2060621 (Molecular Pharmacology Branch, DTP, NCI, 2025).
Several values for one entry are separate records, joined by “and”; a condition that tells them apart may be missing. Identical values can stand only once.

System: 324938-238-R-J1-PDC complex spheroids viability
Experiment: Anticancer human tumor 324938-238-R-J1-PDC patient-derived bladder carcinoma cell line growth inhibition [CLK]
Conditions: for viability, T/C: stronger effect = lower value
Summary of the method: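 Patient-derived tumor cells grown as complex spheroids with HUVEC endothelial cells and mesenchymal stem cells, treated with drug combinations. Concentrations descend in half-log steps from near clinical Cmax, or from 10 microM if Cmax unknown.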

[1] = curve of first compound, second compound 0.0316 µM
[2] = curve of first compound, second compound 0.1 µM
[3] = curve of first compound, second compound 0.316 µM
[4] = curve of first compound, second compound 1 µM
[5] = curve of first compound, second compound 3.16 µM
[6] = curve of first compound, second compound 10 µM
[7] = second compound 0.0316 µM, first compound 0.0316 µM
[8] = second compound 0.0316 µM, first compound 0.1 µM
[9] = second compound 0.0316 µM, first compound 0.316 µM
[10] = second compound 0.0316 µM, first compound 1 µM
[11] = second compound 0.0316 µM, first compound 3.16 µM
[12] = second compound 0.0316 µM, first compound 10 µM
[13] = second compound 0.1 µM, first compound 0.0316 µM
[14] = second compound 0.1 µM, first compound 0.1 µM
[15] = second compound 0.1 µM, first compound 0.316 µM
[16] = second compound 0.1 µM, first compound 1 µM
[17] = second compound 0.1 µM, first compound 3.16 µM
[18] = second compound 0.1 µM, first compound 10 µM
[19] = second compound 0.316 µM, first compound 0.0316 µM
[20] = second compound 0.316 µM, first compound 0.1 µM
[21] = second compound 0.316 µM, first compound 0.316 µM
[22] = second compound 0.316 µM, first compound 1 µM
[23] = second compound 0.316 µM, first compound 3.16 µM
[24] = second compound 0.316 µM, first compound 10 µM
[25] = second compound 1 µM, first compound 0.0316 µM
[26] = second compound 1 µM, first compound 0.1 µM
[27] = second compound 1 µM, first compound 0.316 µM
[28] = second compound 1 µM, first compound 1 µM
[29] = second compound 1 µM, first compound 3.16 µM
[30] = second compound 1 µM, first compound 10 µM
[31] = second compound 3.16 µM, first compound 0.0316 µM
[32] = second compound 3.16 µM, first compound 0.1 µM
[33] = second compound 3.16 µM, first compound 0.316 µM
[34] = second compound 3.16 µM, first compound 1 µM
[35] = second compound 3.16 µM, first compound 3.16 µM
[36] = second compound 3.16 µM, first compound 10 µM
[37] = second compound 10 µM, first compound 0.0316 µM
[38] = second compound 10 µM, first compound 0.1 µM
[39] = second compound 10 µM, first compound 0.316 µM
[40] = second compound 10 µM, first compound 1 µM
[41] = second compound 10 µM, first compound 3.16 µM
[42] = second compound 10 µM, first compound 10 µM
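Note: viability read after seven days of drug exposure.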
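Throughout, for viability, T/C: 100% = DMSO vehicle control wells.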

SMILES: CC1COCCN1c1cc(C2(S(C)(=N)=O)CC2)nc(-c2ccnc3[nH]ccc23)n1 (configuration not stated) + CN1CCN(c2cc(C(=O)Nc3cc4cc(-c5cnn(C)c5)ccc4cn3)ccn2)CC1
- IC50 [1]: 1100 nM
- IC50 [2]: 400 nM
- IC50 [3]: < 31.6 nM
- IC50 [4]: < 31.6 nM
- IC50 [5]: < 31.6 nM
- IC50 [6]: < 31.6 nM
- viability, T/C [7]: 80.1%
- viability, T/C [8]: 79.7%
- viability, T/C [9]: 70%
- viability, T/C [10]: 51.8%
- viability, T/C [11]: 28.8%
- viability, T/C [12]: 14.8%
- viability, T/C [13]: 55.3%
- viability, T/C [14]: 52.7%
- viability, T/C [15]: 55.3%
- viability, T/C [16]: 39.8%
- viability, T/C [17]: 22.9%
- viability, T/C [18]: 11.5%
- viability, T/C [19]: 24.8%
- viability, T/C [20]: 24.1%
- viability, T/C [21]: 19%
- viability, T/C [22]: 21.9%
- viability, T/C [23]: 16.1%
- viability, T/C [24]: 11.4%
- viability, T/C [25]: 1.54%
- viability, T/C [26]: 1.37%
- viability, T/C [27]: 1.72%
- viability, T/C [28]: 1.08%
- viability, T/C [29]: 1.06%
- viability, T/C [30]: 0.6%
- viability, T/C [31]: 0.25%
- viability, T/C [32]: 0.15%
- viability, T/C [33]: 0.19%
- viability, T/C [34]: 0.16%
- viability, T/C [35]: 0.16%
- viability, T/C [36]: 1.37%
- viability, T/C [37]: 0.16%
- viability, T/C [38]: 0.17%
- viability, T/C [39]: 0.21%
- viability, T/C [40]: 0.16%
- viability, T/C [41]: 0.22%
- viability, T/C [42]: 0.22%

SMILES: COc1c(OCCCN2CCOCC2)ccc2c3n(c(=NC(=O)c4cnc(N)nc4)nc12)CCN3
- viability, T/C (compound 0.00316 µM): 64.9% and 69.6%
- viability, T/C (compound 0.01 µM): 49.7% and 52.5%
- viability, T/C (compound 0.0316 µM): 30.7% and 33.4%
- viability, T/C (compound 0.1 µM): 15.3% and 19%
- viability, T/C (compound 0.316 µM): 4.22% and 7.44%
- viability, T/C (compound 1 µM): 0.44% and 1.03%
- IC50 (curve of compound): 9.79 nM and 11.5 nM

SMILES: NC(=O)C(=Cn1cnc(-c2cc(C(F)(F)F)cc(C(F)(F)F)c2)n1)c1cncnc1
- viability, T/C (compound 0.00949 µM): 70.3% and 65.1%
- viability, T/C (compound 0.03 µM): 56.4% and 61.5%
- viability, T/C (compound 0.0949 µM): 37.4% and 29.3%
- viability, T/C (compound 0.3 µM): 12.4% and 14%
- viability, T/C (compound 0.949 µM): 5.43% and 5.85%
- viability, T/C (compound 3 µM): 3.14% and 2.78%
- IC50 (curve of compound): 45.5 nM and 43.6 nM

SMILES: CC(CO)NC(=O)c1cc(-c2ccc(Cl)cc2)nn(-c2cnn(C)c2)c1=O (configuration not stated) + CN1CCN(c2cc(C(=O)Nc3cc4cc(-c5cnn(C)c5)ccc4cn3)ccn2)CC1
- IC50 [1]: > 10000 nM
- IC50 [2]: 4990 nM
- IC50 [3]: < 31.6 nM
- IC50 [4]: < 31.6 nM
- IC50 [5]: < 31.6 nM
- IC50 [6]: < 31.6 nM
- viability, T/C [7]: 84.4%
- viability, T/C [8]: 92.8%
- viability, T/C [9]: 83.5%
- viability, T/C [10]: 81%
- viability, T/C [11]: 63.6%
- viability, T/C [12]: 50.9%
- viability, T/C [13]: 60.7%
- viability, T/C [14]: 62.8%
- viability, T/C [15]: 63.3%
- viability, T/C [16]: 55.7%
- viability, T/C [17]: 57.3%
- viability, T/C [18]: 41.3%
- viability, T/C [19]: 23.5%
- viability, T/C [20]: 25.9%
- viability, T/C [21]: 25.3%
- viability, T/C [22]: 25.8%
- viability, T/C [23]: 26.5%
- viability, T/C [24]: 21.4%
- viability, T/C [25]: 1.59%
- viability, T/C [26]: 1.8%
- viability, T/C [27]: 1.38%
- viability, T/C [28]: 1.23%
- viability, T/C [29]: 1.2%
- viability, T/C [30]: 1.04%
- viability, T/C [31]: 0.16%
- viability, T/C [32]: 0.21%
- viability, T/C [33]: 0.21%
- viability, T/C [34]: 0.15%
- viability, T/C [35]: 0.25%
- viability, T/C [36]: 0.67%
- viability, T/C [37]: 0.13%
- viability, T/C [38]: 0.19%
- viability, T/C [39]: 0.25%
- viability, T/C [40]: 0.2%
- viability, T/C [41]: 0.18%
- viability, T/C [42]: 0.22%

SMILES: CC1(C)CCC(CN2CCN(c3ccc(C(=O)NS(=O)(=O)c4ccc(NCC5CCOCC5)c([N+](=O)[O-])c4)c(Oc4cnc5[nH]ccc5c4)c3)CC2)=C(c2ccc(Cl)cc2)C1
- viability, T/C (compound 0.0316 µM): 85.9% and 77.8%
- viability, T/C (compound 0.1 µM): 79.9% and 82.2%
- viability, T/C (compound 0.316 µM): 84.2% and 75.7%
- viability, T/C (compound 1 µM): 82% and 77.7%
- viability, T/C (compound 3.16 µM): 77.1% and 68.8%
- viability, T/C (compound 10 µM): 46.6% and 10.4%
- IC50 (curve of compound): 8810 nM and 4580 nM

SMILES: CC(Nc1ccc2c(c1)OCCn1cc(N3C(=O)OCC3C(F)F)nc1-2)C(N)=O (configuration not stated) + CNC(=O)c1ccc(Nc2nc(OC3CCCC3)c3c(-c4ccc5nc(C)oc5c4)c[nH]c3n2)c(OC)c1
- IC50 [1]: 169 nM
- IC50 [2]: < 31.6 nM
- IC50 [3]: < 31.6 nM
- IC50 [4]: < 31.6 nM
- IC50 [5]: < 31.6 nM
- IC50 [6]: < 31.6 nM
- viability, T/C [7]: 78.8%
- viability, T/C [8]: 52.5%
- viability, T/C [9]: 42.1%
- viability, T/C [10]: 35.5%
- viability, T/C [11]: 22.2%
- viability, T/C [12]: 15.3%
- viability, T/C [13]: 32.2%
- viability, T/C [14]: 28.1%
- viability, T/C [15]: 25%
- viability, T/C [16]: 21.1%
- viability, T/C [17]: 20.2%
- viability, T/C [18]: 13.6%
- viability, T/C [19]: 14%
- viability, T/C [20]: 10.9%
- viability, T/C [21]: 9.84%
- viability, T/C [22]: 9.27%
- viability, T/C [23]: 6.34%
- viability, T/C [24]: 5.89%
- viability, T/C [25]: 13.4%
- viability, T/C [26]: 12.3%
- viability, T/C [27]: 8.46%
- viability, T/C [28]: 6.86%
- viability, T/C [29]: 5.9%
- viability, T/C [30]: 4.88%
- viability, T/C [31]: 13.1%
- viability, T/C [32]: 9.57%
- viability, T/C [33]: 9.31%
- viability, T/C [34]: 7.44%
- viability, T/C [35]: 7.17%
- viability, T/C [36]: 4.87%
- viability, T/C [37]: 14.4%
- viability, T/C [38]: 9.66%
- viability, T/C [39]: 9.38%
- viability, T/C [40]: 7.73%
- viability, T/C [41]: 7.48%
- viability, T/C [42]: 4.64%
